From US20240025892A1 (priority 2020, published 2024)
“Also recorded” adds a separate entry of the source. Like-named read-outs stand apart in the source and are kept apart here.

How the values were obtained:
Recombinant SIK2 = Recombinant SIK2 (Homo sapiens (Human), UniProt Q9H0K1); test: biochemical; details: recombinant SIK2 2.5 nM, 1 μM ATP; read-out: SIK2 IC50
SIK3 = SIK3 (Homo sapiens (Human), UniProt Q9Y2K2); test: In vitro SIK3 kinase assay; type: biochemical
Experimental: (§1) Assays were performed in base reaction buffer (20 mM Hepes (pH 7.5), 10 mM MgCl2, 1 mM EGTA, 0.02% Brij35, 0.02 mg/mL BSA, 0.1 mM Na3VO4, 2 mM DTT, 1% DMSO). Compounds were dissolved in 100% DMSO in a 10 mM stock. […] Assays were performed for 20 minutes at room temperature, after which time ^33P-ATP (10 μCi/μL) was added followed by incubation for another 120 minutes at room temperature. Thereafter, radioactivity incorporated into the pEY peptide substrate was detected by filter-binding method. Kinase activity data were expressed as the percent remaining kinase activity in test samples compared to DMSO reactions. IC50 values and curve fits were obtained using Prism (GraphPad Software).

SIK1 = SIK1 (Homo sapiens (Human), UniProt P57059); test: In vitro SIK1 kinase assay; type: biochemical
Experimental: as §1

[1] = molecular target: NanoLuc-SIK2 fusion in HEK293 cells (Homo sapiens (Human), UniProt Q9H0K1); test: cell-based
Experimental: Assays were performed at Reaction Biology Corporation (Malvern, PA) in HEK293 cells from ATCC in 384 well plate format using Promega's NanoBRET TE intracellular kinase assay platform. HEK293 cells transiently expressing NanoLuc-SIK2 fusion vector were seeded into 384 well plates. Cells were pre-treated with the NanoBRET Tracer K-4 and then treated with compounds for 60 minutes in 10 point dose response format. […] IC50 values were calculated and IC50 curves were plotted using the GraphPad Prism 4 program on a sigmoidal dose response equation.

CRTC2 (TORC2) = test: CRTC2 nuclear translocation (PathHunter U2OS); type: cell-based; details: maximal CRTC2 nuclear translocation, U2OS cells, 90 minutes, maximum dose 10 μM
Source text: PathHunter® Nuclear Translocation cell lines are engineered to co-express two fusion proteins: a) Enzyme Donor (ED) tagged target protein; b) an Enzyme Acceptor (EA) tagged TAZ domain, derived from the CBP/P300 transcription factor, that localizes to the nucleus. Activation of the signaling pathway induces translocation of the ED-tagged target protein into the nucleus, which will force complementation of the two enzyme fragments, and result in the formation of a functional enzyme that will hydrolyze substrate and generate a chemiluminescent signal. U2OS CRTC2 (TORC2) translocation assays were performed in 384 well plates at Eurofins DiscoverX (Freemont, CA). Cells were treated with compounds for 90 minutes in experimental duplicates in 5 point dose response format (4-fold serial dilutions with a maximum dose of 10 μM) followed by […] readout on an Envision 2104 Multilabel Reader. In all experiments, forskolin was used as a positive control and maximal CRTC2 nuclear translocation induced by each compound is expressed as a percentage of the signal stimulated by forskolin.
Representative data are shown in FIG. 4A and presented as percent of the positive control (forskolin) signal.

RANKL = RANKL gene expression in Ocy454 cells (RT-qPCR); details: maximal RANKL fold induction versus DMSO, four hours;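 also: Ocy454 cells moved to 37 °C for osteocytic differentiation before compound exposure, RANKL mRNA by SYBR Green qRT-PCR, 2^−ΔΔCT with β-actin normalization, duplicate wells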
[2] = system: 12 week old female C57B6 mice, sham or OVX; test: Ovariectomy (OVX) mouse model of post-menopausal osteoporosis; type: in vivo
Source text: Recent reports have described the signaling pathway used by PTH in target cells in bone (see e.g., Wein et al, Nature Communications, 2016, 7:13176; Wein et al, Trends Endocrinol Metab. 2018; and Nishimori et al, J. Clin. Invest. 2019). One step in this cascade is that PTH signaling leads to PKA-dependent inhibition of salt inducible kinases (SIKs). Small molecule SIK inhibitors, such as YKL-05-099 (see e.g., Sundberg et al, ACS chemical biology, 2016; and Tarumoto et al, Blood, 2019), a tool compound that inhibits all 3 SIK isoforms, mimic the actions of PTH (see e.g., Wein et al, Nature Communications, 2016, 7:13176). The efficacy of YKL-05-099 has been tested in mice rendered hypo-gonadal by surgical removal of the ovaries, a model of post-menopausal osteoporosis. […] Therefore, mice were generated where SIK2/3 can be deleted ubiquitously in a tamoxifen-dependent manner to assess the safety and skeletal efficacy of selective SIK2/3 deletion in adult animals.

[3] = HEK293 cells, compounds for 60 minutes, read-out: SIK2 NanoBRET
[4] = mice, YKL-05-099 18 mg/kg once daily for 4 weeks

SIK3, sequence (Q9Y2K2 whole entry): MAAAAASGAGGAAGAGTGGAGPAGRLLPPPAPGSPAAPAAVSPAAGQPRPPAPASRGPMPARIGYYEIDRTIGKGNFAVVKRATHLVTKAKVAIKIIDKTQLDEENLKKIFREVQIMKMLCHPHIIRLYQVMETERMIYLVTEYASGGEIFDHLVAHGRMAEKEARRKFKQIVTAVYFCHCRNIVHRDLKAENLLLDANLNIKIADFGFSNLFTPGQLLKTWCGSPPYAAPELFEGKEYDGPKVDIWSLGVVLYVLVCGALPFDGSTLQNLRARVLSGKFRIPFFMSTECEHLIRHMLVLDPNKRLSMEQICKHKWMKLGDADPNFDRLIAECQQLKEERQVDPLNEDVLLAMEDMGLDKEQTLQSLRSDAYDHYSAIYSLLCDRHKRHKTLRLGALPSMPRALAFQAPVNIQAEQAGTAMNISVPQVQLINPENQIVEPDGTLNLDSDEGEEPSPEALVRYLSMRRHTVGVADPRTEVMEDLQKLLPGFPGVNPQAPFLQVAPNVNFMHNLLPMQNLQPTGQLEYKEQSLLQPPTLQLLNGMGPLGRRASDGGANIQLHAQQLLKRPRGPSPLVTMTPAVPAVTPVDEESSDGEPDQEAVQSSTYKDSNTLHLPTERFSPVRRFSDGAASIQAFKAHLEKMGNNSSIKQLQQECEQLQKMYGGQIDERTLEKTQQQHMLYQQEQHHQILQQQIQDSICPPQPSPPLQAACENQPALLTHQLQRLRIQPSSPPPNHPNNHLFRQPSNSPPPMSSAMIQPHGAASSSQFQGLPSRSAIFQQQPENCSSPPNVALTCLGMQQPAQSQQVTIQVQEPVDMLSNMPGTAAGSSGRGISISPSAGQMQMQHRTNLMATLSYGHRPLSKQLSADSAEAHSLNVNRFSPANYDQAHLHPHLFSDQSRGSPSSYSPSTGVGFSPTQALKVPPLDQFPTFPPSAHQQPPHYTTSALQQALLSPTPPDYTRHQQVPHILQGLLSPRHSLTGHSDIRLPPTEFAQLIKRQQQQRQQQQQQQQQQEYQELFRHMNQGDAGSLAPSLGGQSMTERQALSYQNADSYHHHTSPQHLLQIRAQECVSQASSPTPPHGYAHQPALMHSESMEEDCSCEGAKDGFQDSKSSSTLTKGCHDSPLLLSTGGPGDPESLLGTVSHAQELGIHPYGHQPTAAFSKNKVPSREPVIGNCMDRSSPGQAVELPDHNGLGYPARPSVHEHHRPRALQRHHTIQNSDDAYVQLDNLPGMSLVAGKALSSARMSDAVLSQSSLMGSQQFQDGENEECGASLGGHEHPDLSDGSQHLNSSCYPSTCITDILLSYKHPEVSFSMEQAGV
SIK1, sequence (P57059 whole entry): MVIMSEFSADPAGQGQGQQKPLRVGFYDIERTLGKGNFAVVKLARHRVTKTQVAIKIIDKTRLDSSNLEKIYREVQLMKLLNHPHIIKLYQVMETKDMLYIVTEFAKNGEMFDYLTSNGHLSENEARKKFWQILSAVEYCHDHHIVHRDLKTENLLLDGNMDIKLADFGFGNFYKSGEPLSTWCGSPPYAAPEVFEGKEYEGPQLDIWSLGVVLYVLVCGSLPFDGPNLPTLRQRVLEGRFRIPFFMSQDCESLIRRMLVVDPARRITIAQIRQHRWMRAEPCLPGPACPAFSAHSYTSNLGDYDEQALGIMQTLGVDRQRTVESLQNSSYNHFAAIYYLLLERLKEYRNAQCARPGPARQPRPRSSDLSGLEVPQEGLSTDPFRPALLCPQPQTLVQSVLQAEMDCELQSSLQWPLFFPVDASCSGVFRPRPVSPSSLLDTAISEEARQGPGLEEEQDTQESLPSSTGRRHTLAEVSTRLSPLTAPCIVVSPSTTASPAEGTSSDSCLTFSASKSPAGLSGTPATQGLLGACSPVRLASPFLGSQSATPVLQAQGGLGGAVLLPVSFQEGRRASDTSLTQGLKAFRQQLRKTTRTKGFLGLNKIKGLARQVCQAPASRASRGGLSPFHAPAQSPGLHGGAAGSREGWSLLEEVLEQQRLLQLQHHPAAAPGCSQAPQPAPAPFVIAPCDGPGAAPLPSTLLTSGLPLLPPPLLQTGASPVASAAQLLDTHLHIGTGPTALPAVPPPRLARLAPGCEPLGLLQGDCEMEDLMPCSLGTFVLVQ
Recombinant SIK2, sequence (Q9H0K1 whole entry): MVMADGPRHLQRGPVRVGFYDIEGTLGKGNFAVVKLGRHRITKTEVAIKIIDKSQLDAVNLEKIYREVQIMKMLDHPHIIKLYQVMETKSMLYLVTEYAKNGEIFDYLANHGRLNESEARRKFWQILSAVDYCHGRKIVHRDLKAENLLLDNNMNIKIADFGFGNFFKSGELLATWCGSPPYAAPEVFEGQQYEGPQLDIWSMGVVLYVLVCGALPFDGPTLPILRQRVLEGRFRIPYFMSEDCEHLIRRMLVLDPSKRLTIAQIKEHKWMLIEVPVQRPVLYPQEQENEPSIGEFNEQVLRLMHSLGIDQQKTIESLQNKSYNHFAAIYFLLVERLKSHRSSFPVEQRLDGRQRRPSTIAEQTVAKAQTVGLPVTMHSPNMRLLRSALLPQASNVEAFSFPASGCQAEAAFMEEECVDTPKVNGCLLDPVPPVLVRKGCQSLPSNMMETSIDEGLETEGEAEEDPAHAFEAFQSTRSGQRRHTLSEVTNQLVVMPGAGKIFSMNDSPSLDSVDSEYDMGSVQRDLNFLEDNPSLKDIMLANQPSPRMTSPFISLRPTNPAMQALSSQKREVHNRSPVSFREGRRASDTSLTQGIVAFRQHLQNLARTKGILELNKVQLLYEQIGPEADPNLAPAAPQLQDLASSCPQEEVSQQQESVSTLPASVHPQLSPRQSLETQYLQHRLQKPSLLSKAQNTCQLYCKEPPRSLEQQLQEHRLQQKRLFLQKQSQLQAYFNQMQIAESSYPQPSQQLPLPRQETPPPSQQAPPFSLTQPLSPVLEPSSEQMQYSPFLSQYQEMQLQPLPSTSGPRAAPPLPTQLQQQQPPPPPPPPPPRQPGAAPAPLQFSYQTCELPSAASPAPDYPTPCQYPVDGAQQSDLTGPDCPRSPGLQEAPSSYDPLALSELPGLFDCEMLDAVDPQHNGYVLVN
NanoLuc-SIK2 fusion in HEK293 cells, sequence (Q9H0K1 whole entry, the tested form may be a part): as the sequence (Q9H0K1 whole entry) above

Compound | IC50 (Recombinant SIK2) | IC50 (SIK3) | IC50 (SIK1) | IC50 [1] | CRTC2 Efficacy (% of forskolin) (CRTC2 (TORC2)) | RANKL Fold Induction (RANKL) | IC50 [1, 3] | bone density / bone mass and bone formation ([2]; OVX mice, once daily for 4 weeks, PTH 100 mcg/d, YKL-05-099 18 mg/kg) | BUN levels / renal function [2, 4] | fasting glucose [2, 4]
N#Cc1ccc(-c2cnn3cc(C(=O)NCc4nc5cccnc5[nH]4)ccc23)cc1 [Example 35, 3-(4-Cyanophenyl)-N-(3H-imidazo[4,5-b]pyridin-2-ylmethyl)pyrazolo[1,5-a]pyridine-6-carboxamide] | 7.55 nM | 103 nM | 2090 nM | 93.2 nM | 8.9 % of forskolin | 0.39 fold |  |  |  | 
N#Cc1ccc(-c2cnc3cc(-c4cnn(C5CC5)c4)ccn23)cc1 [Example 49, 4-(7-(1-cyclopropyl-1H-pyrazol-4-yl)imidazo[1,2-a]pyridin-3-yl)benzonitrile] | 0.101 nM | 1.43 nM | 2.16 nM |  | 92.2 % of forskolin | 6.31 fold | 1.36 nM |  |  | 
COc1ccc(OC)c(-c2cnc3cc(C(=O)NCc4cccnc4)ccn23)c1 [Example 31, 3-(2,5-dimethoxyphenyl)-N-(3-pyridylmethyl)imidazo[1,2-a]pyridine-7-carboxamide] |  | 76.1 nM | 409 nM | 4020 nM | 31.2 % of forskolin | 0.90 fold |  |  |  | 
COCCN1CCC12CCN(c1cccc3ccc(-n4cnc5cc(OCC6(C)COC6)ccc54)nc13)CC2 [Example 12, 8-[1-(2-Methoxyethyl)-1,7-diazaspiro[3.5]nonan-7-yl]-2-[5-[(3-methyloxetan-3-yl)methoxy]benzimidazol-1-yl]quinoline] | 4.9 nM | 11.9 nM | 140 nM | 925 nM | 37.6 % of forskolin | 62.52 fold |  |  |  | 
N#Cc1ccc(-c2cnn3cc(C(=O)NCc4cccnc4)ccc23)cc1 [Example 37, 3-(4-Cyanophenyl)-N-(3-pyridylmethyl)pyrazolo[1,5-a]pyridine-6-carboxamide] | 32.5 nM | 310 nM | 775 nM |  | 40.6 % of forskolin | 1.17 fold | 116 nM |  |  | 
CCc1nnc(-c2ccc(-c3cnc4cc(-c5cnn(C)c5)ccn34)cc2OC)o1 [Example 57, 2-ethyl-5-(2-methoxy-4-(7-(1-methyl-1H-pyrazol-4-yl)imidazo[1,2-a]pyridin-3-yl)phenyl)-1,3,4-oxadiazole] | 8.76 nM | 11 nM | 90.8 nM |  |  | 13.68 fold | 90.8 nM |  |  | 
CC1(COc2ccc3c(c2)ncn3-c2ccc3cccc(N4CCC5(CCN5)CC4)c3n2)COC1 [Example 3, 2-(5-((3-methyloxetan-3-yl)methoxy)-1H-benzo[d]imidazol-1-yl)-8-(1,7-diazaspiro[3.5]nonan-7-yl)quinoline] | 0.979 nM | 2.24 nM | 18.4 nM |  | 88.5 % of forskolin | 57.08 fold | 8.86 nM |  |  | 
N#Cc1ccc(-c2cnc3cc(C(=O)NCc4cn5ccccc5n4)ccn23)cc1 [Example 24, 3-(4-cyanophenyl)-N-(imidazo[1,2-a]pyridin-2-ylmethyl)imidazo[1,2-a]pyridine-7-carboxamide] | 11.4 nM | 835 nM | 12500 nM |  | 21.2 % of forskolin | 2.24 fold | 42.1 nM |  |  | 
CCc1nc(-c2c(OC)cc(-c3cnc4cc(-c5cnn(C)c5)ccn34)cc2OC)no1 [Example 61, 3-[2,6-Dimethoxy-4-[7-(1-methylpyrazol-4-yl)imidazo[1,2-a]pyridin-3-yl]phenyl]-5-ethyl-1,2,4-oxadiazole] | 3.07 nM | 8.25 nM | 37.8 nM |  | 76.9 % of forskolin | 19.00 fold |  |  |  | 
N#Cc1ccc(-n2cnc3cc(C(=O)NCc4cn5ccccc5n4)ccc32)cc1 [Example 33, 1-(4-cyanophenyl)-N-(imidazo[1,2-a]pyridin-2-ylmethyl)-1H-benzo[d]imidazole-5-carboxamide] | 14.2 nM | 2550 nM | 5420 nM |  | 21.7 % of forskolin | 0.92 fold | 44.8 nM |  |  | 
N#Cc1ccc(-c2cnc3cc(C(=O)NCc4nc5ccccc5[nH]4)ccn23)cc1 [Example 22, N-((1H-benzo[d]imidazol-2-yl)methyl)-3-(4-cyanophenyl)imidazo[1,2-a]pyridine-7-carboxamide] | 5.58 nM | 497 nM | 13000 nM |  | 12.9 % of forskolin | 1.19 fold | 117 nM |  |  | 
COc1ccc(N2C(=O)N(c3c(C)cccc3Cl)Cc3cnc(Nc4ccc(C5CCN(C)CC5)cc4OC)nc32)nc1 [YKL-05-099] |  |  |  |  |  |  |  | comparable/superior efficacy; also recorded: increase bone density and bone formation rate | impaired renal function; also recorded: increased | hyper-glycemia; also recorded: increased
NC1CCN(c2cccc3ncc(-n4cnc5cc(OCC6CS(=O)(=O)C6)ccc54)nc23)CC1 [Example 14, 3-(((1-(8-(4-Aminopiperidin-1-yl)quinoxalin-2-yl)-1H-benzo[d]imidazol-5-yl)oxy)methyl)thietane 1,1-dioxide] | 16.1 nM | 6.08 nM | 109 nM |  | 94.2 % of forskolin | 1.26 fold |  |  |  | 
CC1(COc2ccc3c(c2)ncn3-c2ccc3cccc(N4CC5(CC(N)C5)C4)c3n2)COC1 [Example 2, 2-[2-[5-[(3-Methyloxetan-3-yl)methoxy]benzimidazol-1-yl]-8-quinolyl]-2-azaspiro[3.3]heptan-6-amine] | 42.1 nM | 38.7 nM | 625 nM |  | 162 % of forskolin | 1.43 fold |  |  |  | 
CC1(COc2ccc3c(c2)ncn3-c2ccc3cccc(N4CC(N)C4)c3n2)COC1 [Example 7, 1-(2-(5-((3-methyloxetan-3-yl)methoxy)-1H-benzo[d]imidazol-1-yl)quinolin-8-yl)azetidin-3-amine] | 8.35 nM | 11.5 nM | 138 nM |  | 89 % of forskolin | 30.37 fold | 43.2 nM |  |  | 
